# Paper PMC11224111, “Optimizing the pharmacokinetics of an ^211At-labeled RGD peptide with an albumin-binding moiety via the administration of an albumin-binding inhibitor” (European Journal of Nuclear Medicine and Molecular Imaging, 2024)
# Where two headings read alike, the source gives them in different places. Marks after values point to notes of the source that are not given here.
# What was measured:
# [1] = Biodistribution of [^211At]1 and [^125I]2 in normal mice with ibuprofen or IPBA as albumin-binding inhibitor; details: 4 h after administration
# Experimental: To evaluate the effects of albumin-binding inhibitors in normal mice, [^211At]1 (37 kBq) and [^125I]2 (37 kBq) were intravenously coadministered. […] The total blood albumin (1.1 µmol) in normal mice was calculated from the albumin concentration (3.0 g/dL ≈ 455 µM) in blood, which was informed from Japan SLC, Inc., total blood volume (2.5 mL) as 8% of body weight, and the molecular weight of albumin as 66,000 g/mol. […]
# Table S1. Biodistribution of radioactivity 4 h after administration of [^211At]1 and [^125I]2 in normal mice.
# [2] = mouse, in vivo; cited from earlier work
# [3] = IPBA 10 eq at 1 h postinjection
# [4] = ibuprofen 10 eq at 1 h postinjection
substance,measurement,setting,value
Ga-DOTA-K([^125I]IPBA)-c(RGDfK) [[^125I]2],"Radioactivity, Blood",[1]; IPBA 2 eq at 1 h postinjection,"7.26 (0.34)^ ***, a, b % injected activity per gram"
same,"Radioactivity, Bone",[1]; IPBA 2 eq at 1 h postinjection,"1.22 (0.11) ^a, b % injected activity per gram"
same,"Radioactivity, Brain",[1]; IPBA 2 eq at 1 h postinjection,"0.20 (0.03)^ *,^ a % injected activity per gram"
same,"Radioactivity, Heart",[1]; IPBA 2 eq at 1 h postinjection,"2.49 (0.13)^ **,^ a % injected activity per gram"
same,"Radioactivity, Kidney",[1]; IPBA 2 eq at 1 h postinjection,3.46 (0.17)^ * % injected activity per gram
same,"Radioactivity, L. intestine",[1]; IPBA 2 eq at 1 h postinjection,1.14 (0.31)^ ** % injected activity per gram
same,"Radioactivity, Liver",[1]; IPBA 2 eq at 1 h postinjection,1.58 (0.12)^ a % injected activity per gram
same,"Radioactivity, Lung",[1]; IPBA 2 eq at 1 h postinjection,"4.22 (0.49)^ ***,^ a, b % injected activity per gram"
same,"Radioactivity, Muscle",[1]; IPBA 2 eq at 1 h postinjection,"1.02 (0.07)^ *,^ a, b % injected activity per gram"
same,"Radioactivity, Neck",[1]; IPBA 2 eq at 1 h postinjection,0.32 (0.10) % injected activity
same,"Radioactivity, Pancreas",[1]; IPBA 2 eq at 1 h postinjection,"1.41 (0.10)^ *,^ a, b % injected activity per gram"
same,"Radioactivity, S. intestine",[1]; IPBA 2 eq at 1 h postinjection,"1.28 (0.03)^ **,^ a % injected activity per gram"
same,"Radioactivity, Spleen",[1]; IPBA 2 eq at 1 h postinjection,"1.15 (0.11)^ *,^ a, b % injected activity per gram"
same,"Radioactivity, Stomach",[1]; IPBA 2 eq at 1 h postinjection,1.21 (0.07)^ * % injected activity
same,"Radioactivity, Blood",[1]; IPBA 5 eq at 1 h postinjection,"2.06 (0.24)^ ***, a, b, c % injected activity per gram"
same,"Radioactivity, Bone",[1]; IPBA 5 eq at 1 h postinjection,"0.73 (0.06)^ **,^ a, b, c % injected activity per gram"
same,"Radioactivity, Brain",[1]; IPBA 5 eq at 1 h postinjection,0.15 (0.02)^ a % injected activity per gram
same,"Radioactivity, Heart",[1]; IPBA 5 eq at 1 h postinjection,"0.83 (0.09)^ **,^ a, b, c % injected activity per gram"
same,"Radioactivity, Kidney",[1]; IPBA 5 eq at 1 h postinjection,"3.52 (0.08)^ *, b % injected activity per gram"
same,"Radioactivity, L. intestine",[1]; IPBA 5 eq at 1 h postinjection,0.87 (0.25) % injected activity per gram
same,"Radioactivity, Liver",[1]; IPBA 5 eq at 1 h postinjection,"1.20 (0.12)^ *,^ a, b, c % injected activity per gram"
same,"Radioactivity, Lung",[1]; IPBA 5 eq at 1 h postinjection,"1.92 (0.16)^ **,^ a, b, c % injected activity per gram"
same,"Radioactivity, Muscle",[1]; IPBA 5 eq at 1 h postinjection,"0.47 (0.04)^ **,^ a, b, c % injected activity per gram"
same,"Radioactivity, Neck",[1]; IPBA 5 eq at 1 h postinjection,0.07 (0.02)^ a % injected activity
same,"Radioactivity, Pancreas",[1]; IPBA 5 eq at 1 h postinjection,"0.79 (0.10)^ **,^ a, b, c % injected activity per gram"
same,"Radioactivity, S. intestine",[1]; IPBA 5 eq at 1 h postinjection,1.33 (0.14) % injected activity per gram
same,"Radioactivity, Spleen",[1]; IPBA 5 eq at 1 h postinjection,"0.93 (0.58)^ a, b % injected activity per gram"
same,"Radioactivity, Stomach",[1]; IPBA 5 eq at 1 h postinjection,"1.11 (0.34)^ **,^ a % injected activity"
same,"Radioactivity, Blood",[1]; [3],"0.95 (0.12)^ **, a, b, c, d % injected activity per gram"
same,"Radioactivity, Bone",[1]; [3],"0.77 (0.07)^ **,^ a, b, c % injected activity per gram"
same,"Radioactivity, Brain",[1]; [3],0.15 (0.03)^ a % injected activity per gram
same,"Radioactivity, Heart",[1]; [3],"0.58 (0.10)^ ***,^ a, b, c % injected activity per gram"
same,"Radioactivity, Kidney",[1]; [3],3.60 (0.43) % injected activity per gram
same,"Radioactivity, L. intestine",[1]; [3],"0.98 (0.31) ^*, b % injected activity per gram"
same,"Radioactivity, Liver",[1]; [3],"0.84 (0.06)^ a, b, c % injected activity per gram"
same,"Radioactivity, Lung",[1]; [3],"1.33 (0.09)^ ***,^ a, b, c % injected activity per gram"
same,"Radioactivity, Neck",[1]; [3],"0.03 (0.02)^ b, c, d % injected activity"
same,"Radioactivity, Pancreas",[1]; [3],"0.60 (0.15)^ a, b, c, d % injected activity per gram"
same,"Radioactivity, S. intestine",[1]; [3],1.17 (0.13)^ a % injected activity per gram
same,"Radioactivity, Spleen",[1]; [3],"1.00 (0.19)^ **,^ a, b % injected activity per gram"
same,"Radioactivity, Stomach",[1]; [3],0.94 (0.12)^ ** % injected activity
same,"Radioactivity, Blood",[1]; [4],"10.19 (0.64)^ ***, a % injected activity per gram"
same,"Radioactivity, Bone",[1]; [4],1.56 (0.16)^ a % injected activity per gram
same,"Radioactivity, Brain",[1]; [4],0.25 (0.05)^ a % injected activity per gram
same,"Radioactivity, Heart",[1]; [4],3.24 (0.29)^ * % injected activity per gram
same,"Radioactivity, Kidney",[1]; [4],3.10 (0.24) % injected activity per gram
same,"Radioactivity, L. intestine",[1]; [4],1.87 (0.66) ^* % injected activity per gram
same,"Radioactivity, Liver",[1]; [4],1.81 (0.24)^ a % injected activity per gram
same,"Radioactivity, Lung",[1]; [4],"6.02 (0.99)^ *,^ a % injected activity per gram"
same,"Radioactivity, Muscle",[1]; [4],1.19 (0.07) % injected activity per gram
same,"Radioactivity, Neck",[1]; [4],"0.36 (0.12)^ *,^ a % injected activity"
same,"Radioactivity, Pancreas",[1]; [4],1.78 (0.09) % injected activity per gram
same,"Radioactivity, S. intestine",[1]; [4],1.49 (0.12)^ * % injected activity per gram
same,"Radioactivity, Spleen",[1]; [4],1.49 (0.18)^ a % injected activity per gram
same,"Radioactivity, Stomach",[1]; [4],1.16 (0.03)^ * % injected activity
same,"Radioactivity, Blood",[1]; vehicle at 1 h postinjection,13.28 (0.80)^ *** % injected activity per gram
same,"Radioactivity, Bone",[1]; vehicle at 1 h postinjection,1.84 (0.12) % injected activity per gram
same,"Radioactivity, Brain",[1]; vehicle at 1 h postinjection,0.38 (0.09) % injected activity per gram
same,"Radioactivity, Heart",[1]; vehicle at 1 h postinjection,4.05 (0.98) % injected activity per gram
same,"Radioactivity, Kidney",[1]; vehicle at 1 h postinjection,3.32 (0.15) % injected activity per gram
same,"Radioactivity, L. intestine",[1]; vehicle at 1 h postinjection,1.59 (0.38) % injected activity per gram
same,"Radioactivity, Liver",[1]; vehicle at 1 h postinjection,2.51 (0.07) % injected activity per gram
same,"Radioactivity, Lung",[1]; vehicle at 1 h postinjection,7.38 (0.61)^ * % injected activity per gram
same,"Radioactivity, Muscle",[1]; vehicle at 1 h postinjection,1.28 (0.06) % injected activity per gram
same,"Radioactivity, Neck",[1]; vehicle at 1 h postinjection,0.13 (0.03)^ * % injected activity
same,"Radioactivity, Pancreas",[1]; vehicle at 1 h postinjection,1.81 (0.05) % injected activity per gram
same,"Radioactivity, S. intestine",[1]; vehicle at 1 h postinjection,1.94 (0.14)^ ** % injected activity per gram
same,"Radioactivity, Spleen",[1]; vehicle at 1 h postinjection,2.11 (0.08) % injected activity per gram
same,"Radioactivity, Stomach",[1]; vehicle at 1 h postinjection,0.80 (0.12) % injected activity
same,"Radioactivity, Blood",[2],11.80 (0.75) % injected activity per gram
same,"Radioactivity, Bone",[2],1.50 (0.26) % injected activity per gram
same,"Radioactivity, Brain",[2],0.29 (0.03) % injected activity per gram
same,"Radioactivity, Heart",[2],3.81 (0.18) % injected activity per gram
same,"Radioactivity, Kidney",[2],3.70 (0.65) % injected activity per gram
same,"Radioactivity, L. intestine",[2],1.20 (0.25) % injected activity per gram
same,"Radioactivity, Liver",[2],1.96 (0.18) % injected activity per gram
same,"Radioactivity, Lung",[2],5.60 (0.52) % injected activity per gram
same,"Radioactivity, Muscle",[2],1.32 (0.16) % injected activity per gram
same,"Radioactivity, Neck",[2],0.09 (0.02) % injected activity
same,"Radioactivity, Pancreas",[2],2.05 (0.25) % injected activity per gram
same,"Radioactivity, S. intestine",[2],1.58 (0.31) % injected activity per gram
same,"Radioactivity, Spleen",[2],1.61 (0.12) % injected activity per gram
same,"Radioactivity, Stomach",[2],0.87 (0.11) % injected activity
